According to patent publication US5591648A, “Antibodies for mevalonic acid and methods for immunological determination of mevalonic acid by using them” (Ono Pharmaceutical Co., Ltd., priority 1993, dated 1997):

Experiments:
Type in all cases: binding
[1] = molecular target: mouse polyclonal antibody BSA-(19)M for mevalonic acid; test: Enzyme immunoassay of mevalonic acid, solid phase antigen method, mouse polyclonal antibody BSA-(19)M; conditions: BSA-(19)M diluted 2 × 10^3; coated KLH-(31) 0.01 μg/ml; second antibody and blocking (O)
Protocol: (§1) An emulsion of PBS (100 μl) containing each of various antigens for immunization prepared in Example 2 (120 μg as BSA when a BSA-conjugate is used or 120 μg as KLH when a KLH-conjugate is used), and FCA (100 μl) was intraperitoneally administered to a male BALC/c mouse aged eight weeks. After about 2 weeks, the mouse was immunized five times every 2 weeks, by an emulsion of a PBS solution (100 μl) containing of the antigen for immunization and FICA (100 μl), prepared by the same procedure as hereinbefore described. After the second and fifth immunization with the antigen for immunization and FICA, the titer of antibody in blood was measured by the method shown below.
(§2) Anti-mouse IgG antibody labeled with the horse-radish peroxidase (prepared by Vector Co.), which was diluted with 50 mM PB containing 0.1% BSA 10000 times (a solution of the second antibody (B)), and which was diluted with 50 mM PB containing 0.1% OVA 10000 times (a solution of the second antibody (O)). […]
(§3) After the removal of an aqueous layer, a standard solution (100 μl) was added thereto. […] After a stopping solution (50 μl) added thereto, and the absorbance was measured at 450 nm.
(§4) On all mouse polyclonal antibody, standard calibration curves were made by platting B/B0 calculated from the measured absorbance.

[2] = molecular target: mouse polyclonal antibody KLH-(45)M for mevalonic acid; test: Enzyme immunoassay of mevalonic acid, solid phase antigen method, mouse polyclonal antibody KLH-(45)M; conditions: KLH-(45)M diluted 2 × 10^3; coated BSA-(12) 0.1 μg/ml; second antibody and blocking (B)
Protocol: as §1, §2, §3, §4

[3] = molecular target: mouse polyclonal antibody KLH-(39)M for mevalonic acid; test: Enzyme immunoassay of mevalonic acid, solid phase antigen method, mouse polyclonal antibody KLH-(39)M; conditions: KLH-(39)M diluted 3 × 10^4; coated BSA-(12) 0.01 μg/ml; second antibody and blocking (B)
Protocol: as §1, §2, §3, §4

[4] = molecular target: mouse polyclonal antibody KLH-(18)M for mevalonic acid; test: Enzyme immunoassay of mevalonic acid, solid phase antigen method, mouse polyclonal antibody KLH-(18)M; conditions: KLH-(18)M diluted 2 × 10^3; coated BSA-(31) 0.01 μg/ml; second antibody and blocking (B)
Protocol: as §1, §2, §3, §4

[5] = system: rabbit polyclonal antibody KLH-(12)R for mevalonic acid; test: Cross-reaction of rabbit polyclonal antibody with analogues of mevalonic acid (radioimmunoassay, competition with R-[2-14C] mevalonic acid); conditions: for IC50: competition with 400 Bq R-[2-14C] mevalonic acid, overnight at 4° C., polyethylene glycol precipitation
Protocol: After about 4 weeks, the rabbit was sensitized four times for each 2 weeks, by an emulsion of a PBS solution (500 μl) containing of the antigen for immunization prepared by the same procedure as hereinbefore described, and FICA (500 μl).
Blood was collected from the rabbit and to the serum prepared (50 μl) were added successively water (450 μl), 0.5% γ-globulin (80 μl) and a saturated aqueous solution of ammonium sulfate (580 μl), and then the mixture was centrifuged. The precipitation was dissolved into 50 mM PB (200 μl), and 50 mM PB (100 μl) containing R-[2-^14 C] mevalonic acid (400 Bq) was added thereto and the mixture was reacted overnight at 4° C. To the mixture was added successively 0.1M PB (200 μl) containing 0.5% bovine γ-globulin and 30% polyethylene glycol 6000 (register trademark, Wako Pure Chem Ind. Ltd. 600 μl), and then the mixture was centrifuged. Radioactivity of the precipitation was measured. […] This blood serum was called as polyclonal antibody, KLH-(12)R.
To 50 mM PB containing 400 Bq of R-[2-^14 C] mevalonic acid (100 μl) was added successively a solution of antibody (the mixture of the polyclonal antibody KLH-(12)R of the present invention, water, (0.5% γ-globulin and a saturated aqueous solution of ammonium sulfate in the ratio of 0.5:4.5:0.8:5.8 was centrifugalized, and the obtained precipitation was dissolved into a solution of 50 mM PB of four times as much as amount of the used polyclonal antibody, 100 μl) and a standard solution of mevalonic acid analogous compound as indicated following table (a solution of 50 mM PB, 100 μl) in the polystyrene tube, and then the mixture was allowed to stand overnight at 4° C. To the reaction mixture was added a solution of 0.5% γ-globulin (200 μl), and further added 30% polyethylene glycol 6000 (600 μl), and then the mixture was centrifuged. The precipitation was dissolved into 0.1N aqueous solution of sodium hydroxide, and added the liquid of scintillator (1 ml), and measured radioactivity.

[6] = molecular target: mouse monoclonal antibody MHM-9H (IgG2b, k; hybridoma FERM BP-4524) for mevalonic acid; test: Cross-reaction of mouse monoclonal antibody with analogues of mevalonic acid (enzyme immunoassay, solid phase first antibody); conditions: for IC50: antibody MHM-9H coated 7 μg/ml, peroxidase-labeled antigen (18), overnight at 4° C., absorbance 450 nm; for cross-reactivity: antibody MHM-9H, relative to mevalonic acid = 100
Protocol: A solution of antibody (prepared in example 10 as hereinafter defined) was placed with 100 μl portions in a polystyrene 96 wells micro plate (prepared by NUNC Co.). The micro plate was allowed to stand for 1.5 hours at room temperature to be fixed. After the removal of an aqueous layer, 50 mM PB (400 μl) containing 0.5% BSA was added to block the inside of a wall of wells for 1 hour at room temperature.
After the removal of an aqueous layer, 50 mM PB (100 μl) containing mevalonic acid analogues of various concentrations was added. A solution of labeled antigen (prepared in example 10 as hereinafter defined) was added thereto with 100 μl portions and then the mixture was allowed to stand overnight at 4° C. After the removal of an aqueous layer, the dishes were washed twice with 50 mM PB (300 μl) containing 0.05% Tween 20. The substrate solution (prepared in example 9 as hereinafter, 250 μl) was added thereto and then the mixture was reacted for 15 minutes at room temperature. After the reaction was stopped by the addition of 1N sulfuric acid (50 μl), and the absorbance was measured at 450 nm.
A conjugate (18) of mevalonic acid derivative and a specer (prepared) in example 1(b). 175 nmol) was added to PBS (175 μl) containing a horse-radish peroxidase (prepared by Toyobo, 350 μg) and then the mixture was reacted for 2 hours at room temperature and then overnight at 4° C. The reaction mixture was dialyzed by a mixture of 1,4-dioxane and PBS (1:1) and then by PBS. An obtained enzyme-labeled antigen was diluted with 50 mM PB containing 0.1% BSA to become 1.25 ng/100 μl (as peroxidase protein).
Monoclonal antibody of the present invention, MHM-9H (prepared in example 5), was prepared by 50 mM PB to become 7 μg/ml.

[7] = molecular target: mouse polyclonal antibody KLH-(53)M for mevalonic acid; test: Enzyme immunoassay of mevalonic acid, solid phase antigen method, mouse polyclonal antibody KLH-(53)M; conditions: KLH-(53)M diluted 5 × 10^2; coated BSA-(39) 1 μg/ml; second antibody and blocking (B)
Protocol: as §1, §2, §3, §4

[8] = molecular target: mouse polyclonal antibody KLH-(31)M for mevalonic acid; test: Enzyme immunoassay of mevalonic acid, solid phase antigen method, mouse polyclonal antibody KLH-(31)M; conditions: KLH-(31)M diluted 10^5; coated BSA-(12) 0.01 μg/ml; second antibody and blocking (B)
Protocol: as §1, §2, §3, §4

[9] = molecular target: mouse polyclonal antibody KLH-(12)M for mevalonic acid; test: Enzyme immunoassay of mevalonic acid, solid phase antigen method, mouse polyclonal antibody KLH-(12)M; conditions: KLH-(12)M diluted 10^4; coated BSA-(31) 0.01 μg/ml; second antibody and blocking (B)
Protocol: as §1, §2, §3, §4

[10] = relative to mevalonic acid = 100

| IC50 [1] [μg/test] | IC50 [2] [μg/test] | IC50 [3] [μg/test] | IC50 [4] [μg/test] | IC50 [5] [μg/test] | IC50 [6] [μg/test] | cross-reactivity [6] [%] | IC50 [7] [μg/test] | IC50 [8] [μg/test] | IC50 [9] [μg/test] | Compound | cross-reactivity [5, 10] [%] | cross-reactivity ([5]; relative to mevalonic acid = 100, listed as glutaric acid) |
| --- | --- | --- | --- | --- | --- | --- | --- | --- | --- | --- | --- | --- |
| 3.6 | 4.0 | 0.1 | 0.3 | 0.065 | 0.0025 | 100 | 6.0 | 0.7 | 0.5 | C[C@@](O)(CCO)CC(=O)O [Mevalonic acid] | 100 |  |
|  |  |  |  | 1000 | > 250 | < 0.001 |  |  |  | CC(CC(=O)O)CC(=O)O [3-Methylglutaric acid] | 0.0065 |  |
|  |  |  |  | 500 | > 250 | < 0.001 |  |  |  | CC(O)(CC(=O)O)CC(=O)O [3-Hydroxy-3-methylglutaric acid] | 0.013 |  |

| Compound | IC50 [1] [μg/test] | IC50 [2] [μg/test] | IC50 [3] [μg/test] | IC50 [4] [μg/test] | IC50 [5] [μg/test] | IC50 [6] [μg/test] | cross-reactivity [6] [%] | IC50 [7] [μg/test] | IC50 [8] [μg/test] | IC50 [9] [μg/test] | cross-reactivity [5, 10] [%] | cross-reactivity ([5]; relative to mevalonic acid = 100, listed as glutaric acid) |
| --- | --- | --- | --- | --- | --- | --- | --- | --- | --- | --- | --- | --- |
| O=C(O)CCCC(=O)O [Glutaric acid] |  |  |  |  | > 6500 | > 250 | < 0.001 |  |  |  | < 0.001 | less than 0.001% |
